# Measurements: patent publication US20020188202A1, “Method of diagnosis and treatment and related compositions and apparatus” (priority 1996, published 2002)
# Entries after “also recorded” stand apart in the source; their conditions may differ.
# What was measured:
# [1] = tested on: patients with cerebral vasospasm; experiment: Vasoactive medications tried on Applicant's patients with vasospasm, monitored by Transcranial Doppler (TCD), exam and symptoms
# Text: As headache was a major complaint of many of Applicant's patients, we tried these medications out including Imitrex (Sumatriptan), IM Toradol (Ketoralac) and other medications under direct monitoring. […] Rather, it was expected that one or another set of medications might help point the way into using specific classes of medications or approaches. Accordingly, each of these patients. equivalent of a large number of patients, were monitored continuously across the day.
# With respect to the different monitoring tools, some were more helpful than others. […] The Brain Stem Auditory Evoked Response and other evoked potential tests were very insensitive tools for monitoring, because of the length of time required to perform the test after short-acting medications were given in IM or sublingual or nasal spray administration route. […] These symptoms included not only headache, but also sensations of confusion, balance disorder, abnormal Romberg or Tandem Gait of other neurological abnormalities.
# As headache was a major complaint of many of these patients, Applicant tried these medications out including Imitrex (Sumatriptan), IM Toradol (Ketoralac) and other medications under direct monitoring. […] Rather, it was expected that one or another set of medications might help point the way into using specific classes of medications or approaches. Accordingly, each of these patients, equivalent of a large number of patients, is monitored continuously across the day.
# With respect to the different monitoring tools, some were more helpful than others. […] The Brain Stem Auditory Evoked Response and other evoked potential tests were very insensitive tools for monitoring, because of the length of time required to perform the test after short-acting medications were given in IM or sublingual or nasal spray administration route.
# [2] = tested on: adult ADD patients with vasospasm; experiment: Attention Deficit Disorder siblings treated with vasodilators, serial TCD and neuropsychological testing; format: in vivo, human patients; conditions: male; for right MCA mean flow velocity: baseline 0.86; for left MCA mean flow velocity: baseline 0.92
# Method: Both were administered a battery of tests which measured neuropsychological functioning and personality variables.
# On referral for neurological evaluation, mild physical and significant objective testing abnormalities were found. […] Both, further, had difficulty performing a Tandem Gait with complete ease. The physical exam was otherwise normal. An EEG and computerized EEG were performed and were abnormal.
# Both individuals were treated with vasodilating medications for 10 months and received psychotherapy and vocational counseling. Relaxation and hypnotherapy were also used to develop visualization skills for both recall of successful social and work experiences and to visualize successful outcomes of activities to do.
# In serial testing, the […] underwent TCD's on three separate occasions on the same day. […] By the end of the day, […] identified that […] could read, understand and retain news articles and magazine articles. […] could also follow a television show throughout. […] could do neither at the beginning of the day.
# On the basis of the objective disorders of flow and the patient's reported and observed improvement during the trial episode of administering medications to decrease the observed vasospasm, we started the sibling on vasodilators. […] This regimen was made up of a low dose Calcium Channel Blocker, and an ACE inhibitor along with low dose Nitroglycerine and a Clonidine patch.
# [3] = tested on: migraine patients with vasospasm on TCD; experiment: Migraine patients treated with Nitroglycerine patches, TCD and neurological exam; format: in vivo, human patients
# Method: All patients are evaluated with a complete history, physical exam, and neurological exam by a Board Certified Neurologist. All patients have blood work consisting of a CBC with differential count and platelets as well as an SMA-30 obtained. All whiplash related patients underwent a CT or MRI of the brain, EEG and qEEG, B-mode and spectral analysis ultrasound of the subclavian, carotid, and vertebral circulation, and Transcranial Doppler (TCD) examination of the intracranial circulation. In some situations, repetitive Transcranial Doppler examinations are performed on the same patient in the same day. Initially, these tests are performed by maintaining the probe on the patient's head through the course of several hours, but later the technique involves using the same probe, patient position, technician, depth, and cranial window with serial but interrupted exams across the course of the day. In all cases, the highest spectral frequencies are recorded, as well as repeat exams at the same depth and window as the baseline pre-medication windows were obtained. Immediately prior to initial TCD exams, a neurological exam is carried out. At the time of initiation of treatment for the cerebral vasospasm, at which time vasoactive medications are administered after the baseline TCD and neuro exam are obtained, repeat TCD exams are carried out and when medication effects on the intracranial circulation were identified, repeat neurological exams are obtained. In 5 patients, P300 are obtained prior to initiation of treatment and, again, several months later. The same methodology is used in those patients referred for evaluation of possible MS-like syndrome as recognized in the recent global settlement. With these patients, triple evoked potentials, EEG and qEEG, and a vascular evaluation as outlined above is carried out in all patients, and in 11 who decided to attempt treatment with vasoactive drugs, the methodology outlined above for initiation of as in the MVA-related post-concussion syndrome are used. 10 of the 19 MS-like syndrome patients additionally had brain MRI tests performed. […]
# [4] = tested on: patient with migraine, schizophrenic reaction and vasospasm; experiment: Case study: psychosis caused by cerebral ischemia, EEG and TCD; format: in vivo, human patient; conditions: single patient
# [5] = human, in vivo, listed as Nitroglycerine
# [6] = second TCD of the day after repetitive applications
# [7] = third TCD of the day after repetitive applications
smiles,measurement,setting,value
O=[N+]([O-])OCC(CO[N+](=O)[O-])O[N+](=O)[O-] [Nitroglycerin],effect on vessels seen on TCD / ultrasound (vasoconstriction or dilatation),"[1]; human, in vivo",resulted in vascular dilatation
same,headache,"[1]; human, in vivo",improvement in the patient's headache
same,neurological exam and other neurological abnormalities,"[1]; human, in vivo",improvement of any other neurological abnormalities
same,headache,[1]; [5],alleviated or treated the headache
same,neurological exam and other neurological abnormalities,[1]; [5],clinical and neurological exam improvement
same,transient supersensitivity (transient worsening of the vasospasm) on early administration,[1]; witnessed on TCD or clinically,can give transient severe vasoconstrictive episodes
same,concentration (self-assessment),[2]; same day serial testing,significant improvement in concentration
same,neurological exam (balance testing),[2]; same day serial testing,exam progressively normalized
same,right MCA mean flow velocity,[2]; [6],0.79 meters/second
same,left MCA mean flow velocity,[2]; [6],0.84 meters/second
same,right MCA mean flow velocity,[2]; [7],0.72 meters/second
same,left MCA mean flow velocity,[2]; [7],0.79 meters/second
same,follow-up TCD at the end of application of the patch,[3]; 3 patients,confirmed reduction of the vasospasm
same,"lower extremity hyper-reflexia, Rhomberg and tandem gait abnormalities","[3]; human, in vivo",all resolved
same,headache,"[3]; patches applied for 10 minutes to 1 hour, 5 patients",headache resolved
same,headaches / migraines,[4],"complete resolution of their daily headaches; also recorded: headaches completely resolved as did memory disturbances, concentration problems and emotional lability; also recorded: responded promptly"
